Laboratory results taken from paper PMC3745430, “Novel Multiplexed Assay for Identifying SH2 Domain Antagonists of STAT Family Proteins” (PLoS ONE, 2013).
Where two headings read alike, the source gives them in different places. Square brackets hold non-standard residues; d marks the D form. Primed or numbered codes have the meaning given here. Ends that are not written are not given here. pY = N[C@@H](Cc1ccc(OP(=O)(O)O)cc1)C(=O)O; FITC′ = 5-carboxyfluorescein label; DIG = digoxygenin label; C2 = two carbon spacer; C6 = C6 spacer

Tests used:
STAT3(136–705) [1] = biological target: T1, STAT3(136–705) (Homo sapiens, UniProt P40763); experiment: Multiplexed Alpha assay, STAT3-SH2 binding (AlphaLISA)
T1 construct: amino acids 136 to 705 of human STAT3 and 136 to 703 of human STAT5b; 6×His-tag (N); made in house; host or cells: E. coli BL-21 Star (DE3) pLysS co-transformed with pBirAcm
Description: (§1) Both AlphaLISA and AlphaScreen are bead-based nonradioactive binding assay systems for detecting biomolecular interactions in a microplate format. The binding of the biological partners brings the donor and acceptor beads into close proximity, and AlphaLISA produces a specific signal around 615 nm and AlphaScreen emits a broad signal between 520 and 620 nm. The assays were performed in a final reaction volume of 25 µL of the assay buffer, which contained 10 mM HEPES-NaOH (pH 7.4), 50 mM NaCl, 1 mM EDTA (pH 8.0), 0.1% (w/v) NP-40, and 10 ng/µL (w/v) BSA in a 96-well microplate at 25°C. The labeled phosphotyrosyl (pTyr, pY) peptide probes were DIG-GpYLPQTV and FITC-GpYLVLDKW for STAT3 and STAT5b, respectively. In the single assay for STAT3 binding, 100 nM STAT3(136–705) protein was incubated with a test compound dissolved in DMSO for 30 min, and 1.0 nM DIG-GpYLPQTV was added and the mixture was incubated for 90 min. Streptavidin-coated donor beads (0.25 µg/well) and anti-DIG AlphaLISA acceptor beads (0.25 µg/well) were added and incubated for 90 min before the signals were measured with EnVison Xcite (PerkinElmer Life Sciences). In the single assay for STAT5b binding, 20 nM STAT5b(136–703) was incubated with a test compound for 30 min, and 1.0 nM FITC-GpYLVLDKW was added and incubated for 90 min. Streptavidin-coated donor beads (0.25 µg/well) and anti-FITC AlphaScreen acceptor beads (0.25 µg/well) were added and incubated for 90 min before the signals were measured with EnVison Xcite. In the multiplexed assay, 100 nM STAT3(136–705) and 20 nM STAT5b(136–703) were incubated with a test compound for 30 min, and 1.0 nM DIG-GpYLPQTV and 1.0 nM FITC-GpYLVLDKW were added and incubated for 90 min. Streptavidin-coated donor beads (0.50 µg/well), anti-DIG AlphaLISA (0.25 µg/well), and anti-FITC AlphaScreen acceptor beads (0.25 µg/well) were added and incubated for 90 min before the signals were measured with EnVison Xcite. AlphaLISA and AlphaScreen signals for measuring STAT3- and STAT5b-SH2 binding, respectively, can be separately measured by using a dysprosium 572 nm and a europium 615 nm narrow bandwidth filter. In inhibitory assays, these signals for the bound state and the free state were represented as 0% and 100% inhibition, respectively. The bound state was measured by incubating the labeled peptide and the protein without test compounds. The free state was measured by incubating the same mixture with an additional 10 µM non-labeled peptide contained phosphorylated tyrosine, which competitively binds to its corresponding protein. The IC50 value was calculated by Graph pad prism 4.0. The mean and the standard error (SEM) of IC50 values were determined from three independent experiments. The Z’ value was calculated using the equation Z’ = 1–(3×SD_bound +3×SD_free)/(Signal_bound – Signal_free). STAT1 and Grb2 binding assays were performed as described in previous report. In the assays for selectivity of Compound 1, 100 pM biotinylated DIG or 100 pM biotinylated FITC was incubated with 10 µM or 30 µM Compound 1 for 30 min. Streptavidin-coated donor beads (0.25 µg/well) and anti-DIG AlphaLISA acceptor beads (0.25 µg/well) or anti-FITC AlphaScreen acceptor beads (0.25 µg/well) were added and incubated for 90 min before the signals were measured with EnVison Xcite.

STAT5b(136–703) [2] = biological target: T2, STAT5b(136–703) (Homo sapiens, UniProt P51692); experiment: Multiplexed Alpha assay, STAT5b-SH2 binding (AlphaScreen)
T2 construct: 136 to 703 of human STAT5b; 6×His-tag (N); made in house; host or cells: E. coli BL-21 Star (DE3) pLysS co-transformed with pBirAcm
T2 sequence (P51692 136-703): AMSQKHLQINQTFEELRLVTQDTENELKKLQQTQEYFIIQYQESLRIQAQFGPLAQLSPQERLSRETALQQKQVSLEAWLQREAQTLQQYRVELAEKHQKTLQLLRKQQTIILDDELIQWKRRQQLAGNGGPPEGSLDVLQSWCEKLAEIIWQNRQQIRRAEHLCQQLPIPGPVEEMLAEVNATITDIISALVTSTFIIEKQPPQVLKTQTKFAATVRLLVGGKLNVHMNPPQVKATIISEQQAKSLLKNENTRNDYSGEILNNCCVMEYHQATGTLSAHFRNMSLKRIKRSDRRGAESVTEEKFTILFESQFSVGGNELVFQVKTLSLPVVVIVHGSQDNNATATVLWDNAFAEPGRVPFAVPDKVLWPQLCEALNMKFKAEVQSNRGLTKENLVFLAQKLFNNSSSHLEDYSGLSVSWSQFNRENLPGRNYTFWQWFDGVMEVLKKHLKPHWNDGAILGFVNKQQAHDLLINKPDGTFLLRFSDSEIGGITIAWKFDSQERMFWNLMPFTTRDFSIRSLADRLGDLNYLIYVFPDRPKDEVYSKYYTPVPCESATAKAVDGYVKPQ
Description: as §1

[3] = system: STAT3 nuclear translocation in HeLa cells; experiment: STAT3 nuclear translocation assay in oncostatin M-stimulated HeLa cells; assay type: cell-based
Description: The Cellomics STAT3 Activation Kit (Thermo Scientific) was used for the nuclear translocation assay. HeLa cells were incubated in a 96-well microplate for 24 h. Cells were pretreated with the test compounds for 1 hour, and 30 ng/mL (w/v) of oncostatin M was applied and the mixture was incubated for 10 min. The subsequent procedures were performed according to the manufacturer’s instructions. The cells were scanned with an ArrayScan VTI reader (Thermo Scientific), and analyzed with the Cytoplasm to Nucleus Translocation Application. The mean fluorescent values in the nuclei were calculated. The signals for vehicle treatment and no treatment (without oncostatin M) were represented as 100% and 0%, respectively, and the relative signal intensity was also calculated.

JAK2 = system: JAK2; parameters: method as in PMID 11934592; details: in vitro assay; cited from earlier work
JAK3 = system: JAK3; parameters: method as in PMID 11934592; details: in vitro assay; cited from earlier work
TYK2 = system: TYK2; parameters: method as in PMID 11934592; details: in vitro assay; cited from earlier work
STAT3(136–705) [4] = biological target: T1, STAT3(136–705); experiment: Single STAT3-SH2 binding assay (AlphaLISA); details: single assay, non-labeled peptides (Figure 4A)
Description: as §1

STAT5b(136–703) [5] = biological target: T2, STAT5b(136–703); experiment: Single STAT5b-SH2 binding assay (AlphaScreen); details: single assay, non-labeled peptides (Figure 4B)
Description: as §1

STAT3(136–705) [6] = biological target: T1, STAT3(136–705); experiment: AlphaScreen competition of FITC-C6-GpYLPQTV binding to STAT3(136–705); details: AlphaScreen system, competitor (Figure S2)
Description: To acquire the signal window, the length of the spacer between DIG and the peptide sequence in the DIG-labeled GpYLPQTV peptide was investigated by using the single STAT3-SH2 binding assay. A six carbon (C6) and a two carbon (C2) peptide spacer were used (Figure 3A). […] The DIG-C6-GpYLPQTV peptide was chosen as the STAT3 ligand. When 100 nM STAT3(136–705) was used as the biotinylated protein, 2.0 nM DIG-C6-GpYLPQTV produced the maximum signal for the STAT3-SH2 binding (Figure 3B, Figure S1). For the STAT5b-SH2 binding, FITC-C6-GpYLVLDKW was used as the STAT5b ligand. The signals increased in a peptide dose-dependent manner (Figure S1). When 20 nM STAT5b(136–703) was used, 2.5 nM FITC-C6-GpYLVLDKW produced the maximum signal for STAT5b-SH2 binding. […] Therefore, although DIG-C2-GpYLPQTV could bind to STAT3, it was not suitable for the Alpha system. The anti-DIG antibody may access the DIG-C6-GpYLPQTV peptide-STAT3 protein complex in preference to the DIG-C2-GpYLPQTV peptide complex because of the length of the spacer.
Supplementary file pone.0071646.s002.tif: Figure S2 Inhibition of STAT3-SH2 binding by DIG-C2-GpYLPQTV. DIG-C2-GpYLPQTV was used as a competitor in the binding assay for STAT3(136–705) protein and FITC-C6-GpYLPQTV peptide in the single assay. Each point is the mean from three replicates, and the error bars represent the standard deviation from the mean. […]

STAT5b(136–703) [7] = biological target: T3, STAT5b(136–703) (human, UniProt P51692 136-703, biotin on the Avi-tag); experiment: AlphaScreen or HTRF; AlphaScreen, single STAT5b-SH2 assay, competition: 20 nM biotinylated STAT5b(136-703) incubated with non-labelled peptide, then 1.0 nM FITC-GpYLVLDKW for 90 min; streptavidin donor and anti-FITC acceptor beads; 10 mM HEPES-NaOH pH 7.4, 50 mM NaCl, 1 mM EDTA, 0.1% NP-40, BSA, 25°C; details: both partners purified
T3 construct: also called biotinylated STAT5b protein; truncated form of STAT5b; source: E. coli BL-21 Star (DE3) pLysS with pBirAcm (biotinylated in the cells), purified (HisTrap HP, dialysis); not shown: Avi-tag, N-terminal, kept
T3 sequence (looked up): T2 sequence (P51692 136-703)

[8] = multiplexed binding assay, mean and SEM, three independent experiments, read-out: IC50 STAT3-SH2 binding (STAT3)
[9] = multiplexed binding assay, mean and SEM, three independent experiments, read-out: IC50 STAT5b-SH2 binding (STAT5b)
[10] = multiplexed assay, read-out: IC50 for STAT3-SH2 binding
[11] = multiplexed assay, read-out: IC50 for STAT5b-SH2 binding

T1 sequence (P40763 136-705): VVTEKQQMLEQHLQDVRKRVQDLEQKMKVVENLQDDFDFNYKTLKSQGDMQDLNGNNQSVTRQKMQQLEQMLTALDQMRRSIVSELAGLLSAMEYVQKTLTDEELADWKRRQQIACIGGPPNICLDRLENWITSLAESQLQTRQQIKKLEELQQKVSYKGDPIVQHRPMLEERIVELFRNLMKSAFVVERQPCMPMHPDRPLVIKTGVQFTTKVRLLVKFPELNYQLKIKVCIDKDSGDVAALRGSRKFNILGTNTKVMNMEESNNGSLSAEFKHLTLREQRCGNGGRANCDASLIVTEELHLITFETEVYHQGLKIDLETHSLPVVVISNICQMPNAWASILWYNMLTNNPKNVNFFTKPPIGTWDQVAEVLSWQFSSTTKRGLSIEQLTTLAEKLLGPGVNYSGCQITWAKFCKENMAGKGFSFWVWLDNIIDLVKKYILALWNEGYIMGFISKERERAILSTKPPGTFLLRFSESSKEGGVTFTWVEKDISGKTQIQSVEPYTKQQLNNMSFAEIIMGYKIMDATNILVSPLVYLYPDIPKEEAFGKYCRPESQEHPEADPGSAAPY

## CCOc1ccccc1NC1=C(Cl)C(=O)c2ccccc2C1=O [Compound 2]
STAT3(136–705) [1]; multiplexed assay
  Increase in inhibitory activity against STAT3 in comparison with Compound 1: approximately 3 fold
STAT3(136–705) [1]; [8]
  IC50: 1.5 ± 0.052 µM
STAT5b(136–703) [2]; multiplexed assay
  Increase in inhibitory activity against STAT5b in comparison with Compound 1: ~8 fold
STAT5b(136–703) [2]; [9]
  IC50: 1.4 ± 0.019 µM

## CC(=O)NC1=C(Cl)C(=O)c2ccccc2C1=O [Compound 4]
STAT3(136–705) [1]; [8]
  IC50: 23 ± 0.68 µM
STAT5b(136–703) [2]; [9]
  IC50: > 30 µM

## O=C1C(Cl)=C(Cl)C(=O)c2ccccc21 [Compound 5]
STAT3(136–705) [1]; [8]
  IC50: 12 ± 0.59 µM
STAT5b(136–703) [2]; [9]
  IC50: 20 ± 0.33 µM

## O=C1C(Cl)=C(N2CCOCC2)C(=O)c2ccc(S(=O)(=O)N3CCOCC3)cc21 [Compound 6]
STAT3(136–705) [1]; [8]
  IC50: 3.8 ± 0.064 µM
STAT5b(136–703) [2]; [9]
  IC50: 13 ± 0.38 µM

## CN1CCN(C2=C(Cl)C(=O)c3ccccc3C2=O)CC1 [Compound 7]
STAT3(136–705) [1]; [8]
  IC50: > 30 µM
STAT5b(136–703) [2]; [9]
  IC50: > 30 µM
[3]; HeLa cells, pretreatment before oncostatin M (Figure 6, Figure S9)
  Effect on STAT3 nuclear translocation: did not inhibit

## CC(C)(C)c1nc2c3cc[nH]c(=O)c3c3cc(F)ccc3c2[nH]1 [JAK inhibitor 1]
[3]; 1 µM, positive control, HeLa
  Fluorescent intensity of STAT3 in the nuclei, of the vehicle treatment: 61%
JAK2
  IC50: […]
JAK3
  IC50: […]
TYK2
  IC50: […]

## O=C(NN=Cc1coc2ccccc2c1=O)c1cccnc1 [STAT5 inhibitor, N′-((4-Oxo-4H-chromen-3-yl)methylene)nicotinohydrazide, reference compound]
STAT3(136–705) [1]; [10]
  IC50: 161 µM
STAT5b(136–703) [2]; [11]
  IC50: 2.8 µM

## O=[N+]([O-])c1ccc2c(c1)S(=O)(=O)C=C2 [Stattic, reference compound]
STAT3(136–705) [1]; [10]
  IC50: 50 µM
STAT5b(136–703) [2]; [11]
  IC50: 175 µM

## Ac-GYLPQTV-NH2
STAT3(136–705) [4]
  Inhibitory effect on STAT3-SH2 binding: had no effect
STAT5b(136–703) [5]
  Inhibitory effect on STAT5b-SH2 binding: had no effect

## Ac-GYLVLDKW-NH2
STAT3(136–705) [4]
  Inhibitory effect on STAT3-SH2 binding: had no effect
STAT5b(136–703) [5]
  Inhibitory effect on STAT5b-SH2 binding: had no effect

## Ac-GpYLPQTV-NH2 (Ac-G[pY]LPQTV-NH2) [non-labeled phosphotyrosine peptide for STAT3]
STAT3(136–705) [4]
  Inhibitory effect on STAT3-SH2 binding: inhibited
STAT5b(136–703) [5]
  Inhibitory effect on STAT5b-SH2 binding: had no effect

## Ac-GpYLVLDKW-NH2
STAT3(136–705) [4]
  Inhibitory effect on STAT3-SH2 binding: had no effect
STAT5b(136–703) [5]
  Inhibitory effect on STAT5b-SH2 binding: inhibited

## DIG-C2-GpYLPQTV ({DIG-C2}-G[pY]LPQTV) [digoxygenin-labeled GpYLPQTV peptide with two carbon spacer]
STAT3(136–705) [6]
  Inhibition of binding between FITC-C6-GpYLPQTV and STAT3(136–705): inhibited

B1: FITC-C6-GpYLVLDKW (peptide)
peptide: {FITC′-C6}-G[pY]LVLDKW
notes: the leading G is not the receptor's residue at that place; also called FITC-GpYLVLDKW; FITC-labeled GpYLVLDKW peptide; source: synthetic peptide (synthesized by Nippi Biomatrix Laboratory)
STAT5b(136–703) [7]
  binding result: binds

B2: Ac-GpYLVLDKW-NH2 (peptide)
peptide: Ac-G[pY]LVLDKW-NH2
SMILES: CC(=O)NCC(=O)N[C@@H](Cc1ccc(OP(=O)(O)O)cc1)C(=O)N[C@@H](CC(C)C)C(=O)N[C@H](C(=O)N[C@@H](CC(C)C)C(=O)N[C@@H](CC(=O)O)C(=O)N[C@@H](CCCCN)C(=O)N[C@@H](Cc1c[nH]c2ccccc12)C(N)=O)C(C)C
notes: the leading G is not the receptor's; also called non-labeled peptide for STAT5b
STAT5b(136–703) [7]
  binding result: binds
